Assay results from PMC11592675, “Förster Resonance Energy Transfer Measurements in Living Bacteria for Interaction Studies of BamA with BamD and Inhibitor Identification” (Cells, 2024).
“And” between values parts separate entries of the source, which are not always exact repeats. Equal values may be shown once. “Also recorded” adds a separate entry of the source.

Legend:
gram-negative bacteria = conditions: in vitro; cited from earlier work
Description: (§1) Resistance against known antibiotics is progressively spreading. Therefore, new antibacterial entities are urgently needed. […] The β-barrel assembly ...

[1] = tested on: interaction between BamA and BamD; conditions: yeast two hybrid high throughput screening; cited from earlier work
Description: as §1

outer membrane = conditions: cited from earlier work
Description: Resistance against known antibiotics is progressively spreading. Therefore, new antibacterial entities are urgently needed. […] The β-barrel assembly ... || The interaction between BamA and BamD is essential for the correct function of the BAM complex. BamE has been reported to stabilize the interaction between BamA and BamD [29]. In this work, BamE was not overexpressed alongside the fluorophore-labeled BamA and BamD fusion proteins. It is therefore unclear to what extent chromosomal-encoded BamE stabilized the complex between fluorophore-labelled BamA and BamD. It is also possible that the interaction measured between BamA and BamD was not affected by BamE at all, due to the low amount of BamE present in comparison to the plas ...

BamA = conditions: cited from earlier work
Description: Resistance against known antibiotics is progressively spreading. Therefore, new antibacterial entities are urgently needed. According to the WHO, new antibiotics against gram-negative bacteria are in particular need. Common mechanisms of antibiotic resistance in gram-negative bacteria include changes in membrane and cell-wall permeability, biofilm formation, the production of efflux pumps and beta-lactamases, as well as mutation of typical targets. […] The β-barrel assembly ...

[2] = biological target: mNeonGreen-BamA (N-terminal fusion of mNeonGreen to BamA) (E. coli) (UniProt P0A940); assay: FRET or BRET; flow cytometry (three channels) of living E. coli BL21 co-expressing the mNeonGreen (donor) and mScarlet-I (acceptor) fusions from one plasmid; cells washed with PBS; binding model (law of mass action) fitted to DFRET and relative concentrations with Ka app, z and Fmax all as free parameters; apparent; five replicates on each of three days
[3] = biological target: BamA-mNeonGreen (C-terminal fusion of mNeonGreen to BamA) (E. coli) (UniProt P0A940); assay: as above
BamA–BamD interaction = assay: FRET-based determination of apparent affinity of BamA, BamD and their variants / FRET pairs in living E. coli cells; format: cell-based; conditions: BamA-mNeonGreen–BamD-mScarlet-I, n = 5 biological replicates (Figure 3c)
Description: E. coli Stellar (F−, endA1, supE44, thi-1, recA1, relA1, gyrA96, phoA, Φ80d lacZΔ M15, Δ(lacZYA-argF) U169, Δ(mrr-hsdRMS-mcrBC), ΔmcrA, λ−) was used for plasmid construction. E. coli BL21 (B, F^−, gal, dcm, Ion, hsdSB(rB^− mB^−), [malB^+]K-12(λ^S)) was used for expression of all fusion proteins and subsequent flow cytometric analysis. Plasmids were constructed by ligation free cloning using the InFusion™ cloning kit (Clonetech, San Jose, CA, USA) according to the manufacturer’s instructions, based on plasmid backbones described earlier. Details on the determinants and the construction of each of the used plasmids is given in the Supplementary Information (Supplementary Table S1 and Supplementary Text S1). Oligonucleotides used in their constructions are listed in Supplementary Table S2. Single-point mutations were introduced with the InFusion™ cloning kit. Oligonucleotides used are listed in Supplementary Table S2.
(§2) At the start of each experiment, E. coli BL21 cells were transformed with the corresponding plasmids, spread onto lysogeny broth-miller (LB)-agar plates with 50 µg/mL kanamycin (≥750 I.U./mg) or carbenicillin (purity: ≥88%) and grown over night. It turned out to be crucial to use freshly transformed cells for each experiment. Keeping the cells on agar plates for more than two days or cryoconservation of the cells led to an increase in the variability of the determined parameters Ka^app., z and Fmax. The following day, after transformation of the cells, 1 mL of LB medium with 50 µg/mL of the corresponding antibiotic in a 48-well plate was inoculated with a single colony and cultivated overnight (16 h) at 37 °C and 200 rpm. For protein production, M9 mineral medium was used, in which glucose was substituted by 1% (m/m) glycerol (purity: ≥99%) as the carbon source. A quantity of 200 µL of M9 medium in a 96-well plate was inoculated with 2 µL of the overnight culture and cultivated at 28 °C and 200 rpm for 6 h. Then, gene expression was induced with 1 mM L-rhamnose (purity: ≥98%), and afterwards an additional 2 h of cultivation with 0.2% (m/V) arabinose (purity: ≥99%). Cells that carried a plasmid that only contained one promotor were only treated with the corresponding inductor. Following induction of gene expression, cells were cultivated for an additional 16 h at 28 °C and 200 rpm. Cells were subsequently washed with PBS three times and then directly analyzed by flow cytometry.
(§3) A FACS Aria III flow cytometer (BD Bioscience, Franklin Lages, NJ, USA) with a 70 microns nozzle was used to analyze all cells. A three-channel method was used to measure the donor channel (mNeonGreeen), the acceptor channel (mScarlet-I) and the FRET channel. To measure the mNeonGreen fluorescence, an excitation wavelength of 488 nm and emission wavelength filters of 530/30 nm (band-pass) and 502 nm (long-pass) were used. mScarlet-I fluorescence was excited at 561 nm and measured with emission wavelength filters of 610/20 nm (band-pass) and 600 nm (long-pass). The FRET channel was measured with an excitation wavelength of 488 nm and emission filters of 610/20 nm (band-pass) and 600 nm (long-pass). A maximum of 10,000 cells per second were analyzed. FACSDiva™ Software (BD Bioscience, Franklin Lages, NJ, USA, version 8.0) was used for gating data analysis. For cells only expressing one fluorophore, 50,000 cells per sample were analyzed. […] A total of 50,000 cells inside the Q2 gate were analyzed. Examples are shown in Supplementary Figure S2. Cells at the edge of the plot were excluded during calculation of DFRET values and relative donor/acceptor concentrations.
Data points of all cells inside the analysis gate (Q2), as described in 2.4, were exported as FCS files using FACSDiva™ Software (BD Bioscience, Franklin Lages, NJ, USA, version 8.0). A custom Python program employing the FlowKit was subsequently used to convert the FCS formatted data into tab-delimited txt format. […]

Pseudomonas aeruginosa = conditions: cited from earlier work
Description: Mori et al. identified a peptide sequence (FIRL) that was highly conserved across BamD homologues in a wide variety of gram-negative bacteria. […] When the peptide was identified by Mori et al., no crystal structure of the BAM complex was available. When we located the amino acids of the FIRL peptide in the crystal structure of BamD, it turned out that only two of the four amino acids, R97 and L98, appeared to interact with BamA at site 2 (Figure 3c). The sidec ... || The interaction between BamA and BamD is essential for the correct function of the BAM complex. BamE has been reported to stabilize the interaction between BamA and BamD [29]. In this work, BamE was not overexpressed alongside the fluorophore-labeled BamA and BamD fusion proteins. It is therefore unclear to what extent chromosomal-encoded BamE stabilized the complex between fluorophore-labelled BamA and BamD. It is also possible that the interaction measured between BamA and BamD was not affected by BamE at all, due to the low amount of BamE present in comparison to the plas ...

[4] = M9 medium or PBS; not soluble at concentrations above 1 mM
Description: Peptides (RFIRLN and […]) were synthesized by Genicbio with a purity of >95%. For treatment with the peptides, cells were grown as described above. […] Cells not treated with the peptide were also incubated in water for 3 h and used as a control for all experiments involving the peptides.

bacterial growth = assay: inhibition of bacterial growth by the peptides; format: cell-based, E. coli; conditions: up to a concentration of 2.5 mM
[5] = tested on: interaction between BamA and BamD (BamA-mNeonGreen and BamD-mScarlet-I); assay: FRET-based BamA–BamD interaction assay in living E. coli cells (flow cytometry), peptide treatment; format: cell-based; conditions: for Ka^app. of the BamA–BamD interaction after peptide treatment: cells incubated 3 h in water, z and Fmax kept constant, n = 5 biological replicates, untreated control in the RFIRLN experiment Ka^app. = 3.08 × 10^−4; for inhibition of the interaction between BamA and BamD (in words): living bacterial cells, 500 µM and 2.5 mM peptide, 3 h in water
Description: as §2, §3
Data points of all cells inside the analysis gate (Q2), as described in 2.4, were exported as FCS files using FACSDiva™ Software (BD Bioscience, Franklin Lages, NJ, USA, version 8.0). A custom Python program employing the FlowKit was subsequently used to convert the FCS formatted data into tab-delimited txt format.
Calculation of the DFRET and calculation of the relative concentration of the acceptor and donor from the flow cytometric data were performed as described by Hochreiter et al.. Cells with an RFU ≥ 250,000 were excluded from further analysis. Fitting of a binding model based on the law of mass actions to the data was also performed as described by Hochreiter et al.. The binding model used here (Equation (1)) fits the affinity (Ka^app), the stoichiometry (z) and the maximum FRET (Fmax) of a complex. To do so, the relative donor and acceptor concentration, as well as the DFRET, of a large number of cells with different expression levels has to be known. All other equations used for the calculations are described in Supplementary Text S1 for clarity. The FRET-efficiency of the donor- acceptor tandem, needed for the calculations, was determined by spectral unmixing according to Alexeeva et al. to be 0.43 [42]. […]

clinical isolates = conditions: several clinical isolates; cited from earlier work
Description: as §1

[6] = interaction site 1 variants, z and Fmax constant
[7] = interaction site 2 variants, z = 1, Fmax = 0.36 constant

COC(=O)c1c(NC(=O)c2ccc([N+](=O)[O-])o2)sc2c1CCN(C(C)C)C2 [IMB-H4]
antibacterial activity (gram-negative bacteria): showed antibacterial activity in vitro
inhibition of the interaction between BamA and BamD [1]: shown to inhibit the interaction between BamA and BamD
permeabilization of the OM (outer membrane): shown to permeabilize the OM
binding to BamA (BamA; no specific interaction site known): binds to BamA

BamD-mScarlet-I (C-terminal fusion of mScarlet-I to BamD) (from UniProt P0AC02 20-245) (natural protein)
stoichiometry N [2]: 0.7 and 1.1
stoichiometry N [3]: 1.3 and 1.6 and 1.2

BamD^E187A: BamD variant
Ka^app. (BamA–BamD interaction; [6]): 7.82 × 10^−5

BamD^L98A: BamD variant
Ka^app. (BamA–BamD interaction; [7]): 6.58 × 10^−5

BamD^N99A: BamD variant
Ka^app. (BamA–BamD interaction; [7]): 6.57 × 10^−5

BamD^R94A: BamD variant
Ka^app. (BamA–BamD interaction; [7]): 5.47 × 10^−5

BamD^R97A: BamD variant
Ka^app. (BamA–BamD interaction; [7]): 6.23 × 10^−5

BamD^Y184A: BamD variant
Ka^app. (BamA–BamD interaction; [6]): 5.27 × 10^−5

BamD^Y184F: BamD variant
Ka^app. (BamA–BamD interaction; [6]): 6.22 × 10^−5

BamD^Y185A: BamD variant, Y185 mutated to alanine
Ka^app. (BamA–BamD interaction; [6]): 6.22 × 10^−5

E183A: BamD variant
Ka^app. (BamA–BamD interaction; [6]): 7.2 × 10^−5

FIRL [peptide derived from BamD, Mori et al]
bacteriostatic or bactericidal effects (Pseudomonas aeruginosa): did not show any bacteriostatic or bactericidal effects
potentiation of antibiotics (Pseudomonas aeruginosa): potentiated the effect of antibiotics; also recorded: potentiate the activity of antibiotics
effect on outer membrane integrity / membrane permeability (outer membrane): cause membrane permeability in treated cells; also recorded: shown to interfere with outer membrane integrity

RFIRLN [variant of the FIRL peptide with extra N-terminal arginine and C-terminal asparagine; derived from BamD]
solubility [4]: ≤ 1000 µM
inhibition of bacterial growth (bacterial growth): no inhibition of bacterial growth was detected up to a concentration of 2.5 mM
Ka^app. of the BamA–BamD interaction after peptide treatment ([5]; 500 µM peptide): 1.95 × 10^−4
Ka^app. of the BamA–BamD interaction after peptide treatment ([5]; 2.5 mM peptide): 7.48 × 10^−5
inhibition of the interaction between BamA and BamD (in words) [5]: inhibit the interaction between BamA and BamD in a dose-dependent manner in the upper micromolar range; also recorded: a clear dose-dependent effect was observed; also recorded: shown to inhibit binding of BamA to BamD in living cells

V181A: BamD variant
Ka^app. (BamA–BamD interaction; [6]): 6.66 × 10^−5

VAEYYTER
inhibition of bacterial growth (bacterial growth): no inhibition of bacterial growth was detected up to a concentration of 2.5 mM
Ka^app. of the BamA–BamD interaction after peptide treatment ([5]; 500 µM peptide): 1.75 × 10^−4
Ka^app. of the BamA–BamD interaction after peptide treatment ([5]; 2.5 mM peptide): 1.03 × 10^−4
inhibition of the interaction between BamA and BamD (in words) [5]: inhibit the interaction between BamA and BamD in a dose-dependent manner in the upper micromolar range; also recorded: a clear dose-dependent effect was observed; also recorded: able to disrupt the binding of BamD to BamA in living cells in high micromolar concentrations

darobactin
antimicrobial activity (clinical isolates): antimicrobial activity against several clinical isolates
effect on insertion of BamA client proteins into the outer membrane (BamA): prevents the insertion of BamA client proteins into the outer membrane
